# Tests used:
# [1] = tested on: Enterobacter aerogenes ATCC 13048; test: Antibacterial activity (MIC), Enterobacter aerogenes ATCC 13048; type: cell-based; conditions: Klebsiella aerogenes, ATCC13048; Enterobacter aerogenes ATCC 13048, Gram -; read-out: Minimum inhibitory concentration (MIC)
# Outline: (§1)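 MIC, Japan Society of Chemotherapy method. Stocks 5000 μg/ml (0.1 N NaOH or sterile dist. water, depending on compound) → standard soln 1000 μg/ml in sterile water.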
# [2] = tested on: Escherichia coli NIHJ JC-2; test: Antibacterial activity (MIC), E. coli NIHJ JC-2; type: cell-based; conditions: NIHJJC2; Escherichia coli NIHJ JC-2, Gram -; read-out: Minimum inhibitory concentration (MIC)
# Outline: as §1
# [3] = tested on: Micrococcus luteus ATCC 9341; test: Antibacterial activity (MIC), Micrococcus luteus ATCC 9341; type: cell-based; conditions: ATCC9341; Micrococcus luteus ATCC 9341, Gram +; read-out: Minimum inhibitory concentration (MIC)
# Outline: as §1
# [4] = tested on: Pseudomonas aeruginosa E-2; test: Antibacterial activity (MIC), P. aeruginosa E-2; type: cell-based; conditions: E2; Pseudomonas aeruginosa E-2, Gram -; read-out: Minimum inhibitory concentration (MIC)
# Outline: as §1
# [5] = tested on: Staphylococcus epidermidis IAM-1296; test: Antibacterial activity (MIC), S. epidermidis IAM-1296; type: cell-based; conditions: Staphylococcus epidermidis, IAM1296, Staphylococcus epidermidis IAM-1296, Gram +; read-out: Minimum inhibitory concentration (MIC)
# Outline: as §1
# [6] = tested on: Pseudomonas aeruginosa E-2; test: Effect on treatment of general infectious disease, P. aeruginosa E-2 (Experiment 4); type: in vivo, ddY male mice infected with Pseudomonas aeruginosa; conditions: E2, 168 h, oral, 1 h after i.p. infection, 3.4×10^4 CFU/mouse, survival after one week
# Method: (§2) The test microorganisms were subjected to standing culture in Trypto-Soya Agar "Nissui" (made by Nissui Seiyaku K.K., Japan) at 37° C. for 16 to 18 hours. The culture was then diluted with PBS (Dulbecco's phosphate buffered saline) and mixed with an equivalent amount of 10% (w/v) Mucin (BACTO MUCIN BACTERIOLOGICAL, made by Difco Co.) to prepare a microorganism solution. The thus prepared microorganism solution (0.5 ml each) was intraperitoneally inoculated to ddY male mice (5 weeks age, weighing 25-28 g, 5 mice in each group), to infect the animals. One hour after the infection, the compound (A) or (J) of the present invention or the known compound (X) suspended in 1% (w/v) aqueous gum arabic or the known compound (Y) dissolved in sterilized distilled water was orally adiministered to mice.
# (§3) The mice were daily observed for one week, and from the survival number of mice after one week, the 50% effective dose (ED50) was calculated by Weil method.
# Pseudomonas aeruginosa E-2 (3.4×10^4 CFU/mouse)
# (§4) The procedure of Experiment 3 was repeated except that ddY male mice weighing 24 to 28 g were employed.
# [7] = tested on: Staphylococcus aureus IID 803; test: Antibacterial activity (MIC), S. aureus IID 803; type: cell-based; conditions: IID803; Staphylococcus aureus IID 803, Gram +; read-out: Minimum inhibitory concentration (MIC)
# Outline: as §1
# [8] = tested on: Klebsiella pneumoniae PCI-602; test: Antibacterial activity (MIC), Klebsiella pneumoniae PCI-602; type: cell-based; conditions: PCI602; Klebsiella pneumoniae PCI-602, Gram -; read-out: Minimum inhibitory concentration (MIC)
# Outline: as §1
# Shigella sonnei EW-33 = test: Antibacterial activity (MIC), Shigella sonnei EW-33; type: cell-based; conditions: Shigella sonnei, EW33, Shigella sonnei EW-33, Gram -; read-out: Minimum inhibitory concentration (MIC)
# Outline: as §1
# [9] = tested on: Staphylococcus aureus IID 803; test: Effect on treatment of general infectious disease, S. aureus IID 803 (Experiment 4); type: in vivo, ddY male mice infected with Staphylococcus aureus; conditions: IID803, 168 h, oral, 1 h after i.p. infection, 2.1×10^7 CFU/mouse, survival after one week
# Method: as §2, §3
# Staphylococcus aureus IID 803 (2.1×10^7 CFU/mouse)
# as §4
# [10] = tested on: Proteus mirabilis IFO 3849; test: Antibacterial activity (MIC), Proteus mirabilis IFO 3849; type: cell-based; conditions: IFO3849; Proteus mirabilis IFO 3849, Gram -; read-out: Minimum inhibitory concentration (MIC)
# Outline: as §1
# [11] = tested on: Citrobacter freundii NIHJ 10018-68; test: Antibacterial activity (MIC), Citrobacter freundii NIHJ 10018-68; type: cell-based; conditions: Citrobacter freundii, NIHJ10018, Citrobacter freundii NIHJ 10018-68, Gram -; read-out: Minimum inhibitory concentration (MIC)
# Outline: as §1
# [12] = Acute toxicity (LD50) (Experiment 6); conditions: mouse, in vivo; oral, mice fasted 18 hours, observed for a week
# Method: (§5) The compound (O) or (P) of the present invention was suspended in sterilized distilled water to prepare a suspension. The suspension was orally adminstered to ddY male mice (5 weeks age, weighing 20 to 25 g, 5 mice in each group), which had been fasted for 18 hours.
# Proteus vulgaris OX-19 = test: Antibacterial activity (MIC), Proteus vulgaris OX-19; type: cell-based; conditions: OX19; Proteus vulgaris OX-19, Gram -; read-out: Minimum inhibitory concentration (MIC)
# Outline: as §1
# Enterobacter cloacae 963 = test: Antibacterial activity (MIC), Enterobacter cloacae 963; type: cell-based; conditions: Enterobacter cloacae, 963, Enterobacter cloacae 963, Gram -; read-out: Minimum inhibitory concentration (MIC)
# Outline: as §1
# [13] = tested on: Staphylococcus aureus FDA 209P JC-1; test: Antibacterial activity (MIC), S. aureus FDA 209P JC-1; type: cell-based; conditions: FDA209P; Staphylococcus aureus FDA 209P JC-1, Gram +; read-out: Minimum inhibitory concentration (MIC)
# Outline: as §1
# [14] = tested on: Salmonella typhimurium IID 971; test: Antibacterial activity (MIC), Salmonella typhimurium IID 971; type: cell-based; conditions: Salmonella enterica; Salmonella typhimurium IID 971, Gram -; read-out: Minimum inhibitory concentration (MIC)
# Outline: as §1
# [15] = tested on: Acinetobacter calcoaceticus AC 54; test: Antibacterial activity (MIC), Acinetobacter calcoaceticus AC 54; type: cell-based; conditions: AC54; Acinetobacter calcoaceticus AC 54, Gram -; read-out: Minimum inhibitory concentration (MIC)
# Outline: as §1
# infection = test: Protective effects against infection (Experiments 3 and 4); type: in vivo, ddY male mice; conditions: result in words
# Method: as §2, §3, §4
# [16] = Low toxicity (Experiments 5 and 6); type: in vivo, ddY male mice; conditions: result in words
# Method: The compound (A) or (J) of the present invention was suspended in 1% (w/v) aqueous gum arabic to prepare a suspension in concentration of 100 mg/ml. The suspension was orally administered to ddY male mice (5 weeks age, weighing 20 to 25 g, 5 mice in each group), which had been fasted for 18 hours, at a rate of 2000 mg/kg body weight of the compound (A) or (J).
# as §5
# [17] = tested on: Pseudomonas aeruginosa IFO 3445; test: Antibacterial activity (MIC), P. aeruginosa IFO 3445; type: cell-based; conditions: Pseudomonas aeruginosa, IFO3445, Pseudomonas aeruginosa IFO 3445, Gram -; read-out: Minimum inhibitory concentration (MIC)
# Outline: as §1
# [18] = tested on: Bacillus subtilis ATCC 6633; test: Antibacterial activity (MIC), Bacillus subtilis ATCC 6633; type: cell-based; conditions: Bacillus subtilis, ATCC6633, Bacillus subtilis ATCC 6633, Gram +; read-out: Minimum inhibitory concentration (MIC)
# Outline: as §1
# [19] = tested on: Streptococcus faecalis IID 682; test: Antibacterial activity (MIC), Streptococcus faecalis IID 682; type: cell-based; conditions: Enterococcus faecalis, IID682, Streptococcus faecalis IID 682, Gram +; read-out: Minimum inhibitory concentration (MIC)
# Outline: as §1
# Escherichia coli KC-14 = test: Antibacterial activity (MIC), E. coli KC-14; type: cell-based; conditions: KC14; Escherichia coli KC-14, Gram -; read-out: Minimum inhibitory concentration (MIC)
# Outline: as §1
# [20] = tested on: Pseudomonas aeruginosa NCTC 10490; test: Antibacterial activity (MIC), P. aeruginosa NCTC 10490; type: cell-based; conditions: Pseudomonas aeruginosa, NCTC10490, Pseudomonas aeruginosa NCTC 10490, Gram -; read-out: Minimum inhibitory concentration (MIC)
# Outline: as §1
# [21] = tested on: Morganella morganii IFO 3848; test: Antibacterial activity (MIC), Morganella morganii IFO 3848; type: cell-based; conditions: Morganella morganii, IFO3848, Morganella morganii IFO 3848, Gram -; read-out: Minimum inhibitory concentration (MIC)
# Outline: as §1
# [22] = tested on: Serratia marcescens IAM 1184; test: Antibacterial activity (MIC), Serratia marcescens IAM 1184; type: cell-based; conditions: Serratia marcescens, IAM1184, Serratia marcescens IAM 1184, Gram -; read-out: Minimum inhibitory concentration (MIC)
# Outline: as §1
smiles,measurement,setting,value
"CC1CN(c2c(F)cc3c(=O)c(C(=O)O)c4scc5n4c3c2N(C)C5)CCN1C (stereo not drawn) [Compound (O), 9,1-(Methylimino)methano-7-fluoro-8-(3,4-dimethyl-1-piperazinyl)-5-oxo-5H-thiazolo[3,2-a]-quinoline-4-carboxylic acid]",MIC,[1],0.1 µg/mL
same,MIC,[2],0.05 µg/mL
same,MIC,[3],0.39 µg/mL
same,MIC,[4],0.78 µg/mL
same,MIC,[5],0.05 µg/mL
same,ED50,[6],9.4 mg/kg
same,MIC,[7],0.025 µg/mL
same,MIC,[8],0.006 µg/mL
same,MIC,Shigella sonnei EW-33,0.05 µg/mL
same,ED50,[9],2.8 mg/kg
same,MIC,[10],0.39 µg/mL
same,MIC,[11],0.39 µg/mL
same,LD50 at 168 h,[12],1410 mg/kg
same,MIC,Proteus vulgaris OX-19,0.025 µg/mL
same,MIC,Enterobacter cloacae 963,0.1 µg/mL
same,MIC,[13],0.025 µg/mL
same,MIC,[14],0.2 µg/mL
same,MIC,[15],0.025 µg/mL
same,protective effects against infection,infection,excellent protective effects against infection
same,toxicity,[16],low toxicity
same,MIC,[17],1.56 µg/mL
same,MIC,[18],0.0125 µg/mL
same,MIC,[19],0.1 µg/mL
same,MIC,Escherichia coli KC-14,0.05 µg/mL
same,MIC,[20],0.78 µg/mL
same,MIC,[21],0.2 µg/mL
same,MIC,[22],0.39 µg/mL

# — US4971967A, “Quinolinecarboxylic acid derivatives, antibacterial compositions and use” (Kanebo Ltd, priority 1989, dated 1990)
